Experimental data published in US20250049753A1, “METHODS AND COMPOSITIONS FOR DELIVERING MYCOPHENOLIC ACID ACTIVE AGENTS TO NON-HUMAN MAMMALS” (Okava Pharmaceuticals, Inc., priority 2017, published 2025).
Values joined by “and” are separate entries in the source; they are usually repeats but may differ in a detail not shown here. Identical values can stand only once.

Experiment: Study 1: single-dose cross-over PK, oral vs intracolonic Na.MPA
Format: in vivo, male beagle dogs
Settings: for dose-normalized AUClast MPA: fasted, average
Description: Two single dose cross-over studies were conducted using a canine model (male beagle dogs) to evaluate the potential of an enteric coated-extended release sodium mycophenolate formulation (“EC-ER-Na.MP”). In a first cross-over study, the pharmacokinetics of MPA and its metabolites (MPAG and AcMPAG) following oral dosing of 180 mg of EC-Na.MPA was compared with intracolonic (IC) administration of Na.MPA. In a second cross-over study, 270 mg of an EC-ER-Na.MPA formulation was administered in the both fed and fasted states and pharmacokinetics were compared with oral administration of 10 mg/kg MMF in the fasted state. Both studies were conducted by Absorption Systems (San Diego, CA).
Study 1: For three days prior to IC dosing, dogs (n=5) were offered a soft diet consisting of canned wet food (Pedigree® Choice Cuts). Otherwise, the dogs were offered their standard diet (LabDiet 5006 laboratory canine diet). Prior to each dosing event, the dogs were fasted for 12 hours prior to dosing until 4 hours post-dose, when food was returned. Animals had free access to water throughout the study. Prior to IC dosing, each dog was given a non-stimulant enema approximately 1 hour prior to dosing to remove feces from the colon. Prior to PO dosing, each dog (n=5) was pre-treated with an intramuscular dose of pentagastrin (6 μg/kg) approximately 30 minutes prior to dosing. Capsules were administered by placement in the back of the throat followed by a 10 mL flush with water.
Each dog received a total dose of 180 mg of MPA for each dose. For IC dosing, MPA was delivered as a solution via an endoscope, and for PO dosing each dog received a single Myfortic® 180 mg enteric coated capsule. Following administration, blood samples were collected up to 24 hours post-dose. Plasma concentrations of MPA, MPAG, and AcMPAG were determined with a qualified LC-MS/MS method, and pharmacokinetic parameters were determined with WinNonlin v.6.4 software.

systemic exposure to MPA following IC and PO dosing (based on average values): similar
SMILES: COc1c(C)c2c(c(O)c1C/C=C(\C)CCC(=O)O)C(=O)OC2 [MPA, Mycophenolic acid]
dose-normalized AUClast MPA (IC 180 mg/dog): 1817 ± 925 kg·ng·h/mL/mg and 1817 kg·ng·h/mL/mg | dose-normalized AUClast MPA (PO 180 mg/dog): 2234 ± 799 kg·ng·h/mL/mg and 2234 kg·ng·h/mL/mg | rate of MPA absorption, IC in comparison to PO dose (dog, in vivo, po): more rapidly absorbed following IC dosing
